Assay results reported in patent US20130130992A1, “DIPEPTIDE DERIVATIVE FOR THE TREATMENT OF CANCER” (ONCOTEST GMBH, priority 2010, published 2013).
Where “and” joins values, the source holds several entries; their conditions need not be identical. Equal values may be shown once. Read-outs that look alike come from different tables or passages of the source.

Experiments:
PRXF DU 145 = experiment: Monolayer propidium iodide assay, PRXF DU 145; format: cell-based; conditions: Homo sapiens, 96 h; PRXF DU 145, Prostate; 4 days of treatment
Text: (§1) Oncotest GmbH, Germany's proprietary tumor cell line panel comprises 40 cell lines. These cell lines were derived from 15 different tumor histotypes, each represented by 1 to 6 different cell lines. Cell lines were established from cancer of the bladder (3), colon (4), head and neck (1), lung (6), breast (3), pancreas (3), prostate (4), ovary (2), kidney (3), liver (1), stomach (1) and the uteri body (1), as well as from melanoma (3), sarcoma (2) and pleuramesothelioma (3). Out of these 40 cell lines, 24 cell lines were established at Oncotest, from patient-derived tumor xenografts. […]
(§2) Stock solutions of the compound of formula (1) (3.3 mM in DMSO) were prepared and stored in small aliquots (200 μl) at −20° C. […] Each concentration was evaluated in triplicate. […]
(§3) Cells were plated in 96-well flat-bottom microtiter plates at a cell density of 4,000 to 20,000 cells/well. […] After an incubation period of 1-2 hours at room temperature, fluorescence (FU) was measured using the Cytofluor 4000 microplate reader (excitation λ=530 nm, emission λ=620 nm) to quantify the amount of attached viable cells. […] Based on the T/C values, relative IC50 values were determined by non-linear regression (log [conc. of inhibitor] versus response (% T/C)) using the GraphPad Prism® analysis software (Prism 5 for Windows, version 5.01, GraphPad Software Inc., CA). […]

PRXF LNCAP = experiment: Monolayer propidium iodide assay, PRXF LNCAP; format: cell-based; conditions: Homo sapiens, 96 h, Prostate, 4 days of treatment
Text: as §1, §2, §3

PRXF PC3M = experiment: Monolayer propidium iodide assay, PRXF PC3M; format: cell-based; conditions: Homo sapiens, PC-3M, 96 h, Prostate, 4 days of treatment
Text: as §1, §2, §3

PXF 1118L = experiment: Monolayer propidium iodide assay, PXF 1118L; format: cell-based; conditions: Homo sapiens, 96 h, Pleuramesothelioma, 4 days of treatment
Text: as §1, §2, §3

PXF 1752L = experiment: Monolayer propidium iodide assay, PXF 1752L; format: cell-based; conditions: Homo sapiens, 96 h, Pleuramesothelioma, 4 days of treatment
Text: as §1, §2, §3

PXF 698L = experiment: Monolayer propidium iodide assay, PXF 698L; format: cell-based; conditions: Homo sapiens, 96 h, Pleuramesothelioma, 4 days of treatment
Text: as §1, §2, §3

RXF 1781L = experiment: Monolayer propidium iodide assay, RXF 1781L; format: cell-based; conditions: Homo sapiens, 96 h, Renal, 4 days of treatment
Text: as §1, §2, §3

RXF 393NL = experiment: Monolayer propidium iodide assay, RXF 393NL; format: cell-based; conditions: Homo sapiens, 96 h, Renal, 4 days of treatment
Text: as §1, §2, §3

RXF 486L = experiment: Monolayer propidium iodide assay, RXF 486L; format: cell-based; conditions: Homo sapiens, 96 h, Renal, 4 days of treatment
Text: as §1, §2, §3

SXF SAOS2 = experiment: Monolayer propidium iodide assay, SXF SAOS2; format: cell-based; conditions: Homo sapiens, SAOS-2, 96 h; SXF SAOS2, Sarcoma; 4 days of treatment
Text: as §1, §2, §3

SXF TE671 = experiment: Monolayer propidium iodide assay, SXF TE671; format: cell-based; conditions: Homo sapiens, TE-671, 96 h; SXF TE671, Sarcoma; 4 days of treatment
Text: as §1, §2, §3

UXF 1138L = experiment: Monolayer propidium iodide assay, UXF 1138L; format: cell-based; conditions: Homo sapiens, 96 h, Uterus, 4 days of treatment
Text: as §1, §2, §3

[1] = tested on: panel of 40 human tumor cell lines; experiment: Monolayer propidium iodide assay, whole panel; format: cell-based; conditions: for IC50: Homo sapiens
Text: Oncotest GmbH, Germany's proprietary tumor cell line panel comprises 40 cell lines. These cell lines were derived from 15 different tumor histotypes, each represented by 1 to 6 different cell lines. Cell lines were established from cancer of the bladder (3), colon (4), head and neck (1), lung (6), breast (3), pancreas (3), prostate (4), ovary (2), kidney (3), liver (1), stomach (1) and the uteri body (1), as well as from melanoma (3), sarcoma (2) and pleuramesothelioma (3). Out of these 40 cell lines, 24 cell lines were established at Oncotest, from patient-derived tumor xenografts. The other 16 cell lines were either provided by the NCl (Bethesda; MD, USA) or were purchased from ATCC (Rockville, Md., USA) or DSMZ (Braunschweig, Germany).
Cell lines were routinely passaged once or twice weekly and maintained in culture for upto 20 passages. All the cells were grown at 37° C. in a humidified atmosphere with 5% (Carbon Dioxide) CO2 in RPMI 1640 medium supplemented with 10% (v/v) fetal calf serum (FCS) and 0.1 mg/ml gentamicin (medium and all other components from PAA, Colbe, Germany). Authenticity of all cell lines was proven by STR (short tandem repeat) analysis, a PCR based DNA-fingerprinting methodology.
Stock solutions of the compound of formula (1) (3.3 mM in DMSO) were prepared and stored in small aliquots (200 μl) at −20° C. An aliquot of the stock solution was thawed on the day of use and stored at room temperature prior to and during dosing. The subsequent dilutions were done with complete RPMI 1640 cell culture medium as follows: the stock solution was diluted 1:22 followed by serial dilutions finally resulting in a (compared to the test concentration) 15-fold higher concentration. For the final dilution step (1:15), 10 μl/well of the solution was directly added to 140 μl/well culture medium. Compound of formula (1) [also referred as test compound] was tested at 0.00032, 0.001, 0.0032, 0.01, 0.032, 0.1, 0.32, 1, 3.2 and 10 μM. Each concentration was evaluated in triplicate.
A modified Propidium Iodide assay was used to assess the effect of the compound of formula (1) on the growth of the human tumor cell lines and was designed as in reference, Anti-cancer Drugs, 6, 522-532, (1995), the disclosure of which is incorporated by reference for the teaching of the assay.
Cells were plated in 96-well flat-bottom microtiter plates at a cell density of 4,000 to 20,000 cells/well. After a 24 hr recovery period to allow the cells to resume exponential growth, the compound of formula (1) was applied at 10 concentrations in half-log increments in triplicates and treatment continued for 4 days. After 4 days of treatment, cells were next washed with 200 μl phosphate buffer solution (PBS) to remove dead cells, then 200 μl of a solution containing 7 μg/ml propidium iodide (PI) and 0.1% (v/v) Triton X-100 were added to the wells. After an incubation period of 1-2 hours at room temperature, fluorescence (FU) was measured using the Cytofluor 4000 microplate reader (excitation λ=530 nm, emission λ=620 nm) to quantify the amount of attached viable cells. Pharmacological effects on cell proliferation and survival were expressed as Test/Control×100 (% T/C) values, with T and C representing the fluorescence read-outs for wells with and without test compound, respectively, i.e. T/C represents the ratio of viable cell numbers following incubation of cell line with and without test compound. Based on the T/C values, relative IC50 values were determined by non-linear regression (log [conc. of inhibitor] versus response (% T/C)) using the GraphPad Prism® analysis software (Prism 5 for Windows, version 5.01, GraphPad Software Inc., CA). For calculation of mean IC50 values over the 40 cell lines as tested, the geometric mean was selected. If Graph Pad Prism could not calculate reliable IC50 values by non-linear regression, the IC50 value was estimated by visual inspection of the concentration-effect curve.

[2] = Solubility (physical properties); format: physicochemical

IC50 (PRXF DU 145): 0.052 µM
IC50 (PRXF LNCAP): 0.122 µM
IC50 (PRXF PC3M): 0.047 µM
IC50 (PXF 1118L): 0.054 µM
IC50 (PXF 1752L): 0.187 µM
IC50 (PXF 698L): 0.178 µM
IC50 (RXF 1781L): 0.26 µM
IC50 (RXF 393NL): 0.323 µM
IC50 (RXF 486L): 0.159 µM
IC50 (SXF SAOS2): 0.185 µM
IC50 (SXF TE671): 0.082 µM
IC50 (UXF 1138L): 0.126 µM
Tumor selectivity: number of cell lines with individual IC50 < mean IC50 ([1]; Bladder): 2 out of 3 and 2/3
Tumor selectivity: number of cell lines with individual IC50 < mean IC50 ([1]; Breast): 1/3
Tumor selectivity: number of cell lines with individual IC50 < mean IC50 ([1]; Colon): 3/4
IC50 ([1]; 3/3 pancreatic tumor cell lines, read-out: individual IC50, pancreatic tumor cell lines): < 0.06 µM
IC50 ([1]; 5/6 cell lines derived from lung carcinoma, read-out: individual IC50, lung carcinoma cell lines): < 0.05 µM
IC50 ([1]; geometric mean over the 40 cell lines, read-out: Mean IC50): 0.089 µM
IC50 ([1]; upper bound for every cell line of the panel, read-out: IC50 achieved for all the 40 cell lines): < 0.33 µM
Tumor selectivity: number of cell lines with individual IC50 < mean IC50 ([1]; Kidney): 0/3
Tumor selectivity: number of cell lines with individual IC50 < mean IC50 ([1]; Lung): 5/6
Tumor selectivity: number of cell lines with individual IC50 < mean IC50 ([1]; Melanoma): 0/3
Tumor selectivity: number of cell lines with individual IC50 < mean IC50 ([1]; Pancreas): 3/3
Tumor selectivity: number of cell lines with individual IC50 < mean IC50 ([1]; Pleurameso): 1/3
Tumor selectivity: number of cell lines with individual IC50 < mean IC50 ([1]; Prostate): 2/4
Solubility ([2]; in water): insoluble in water
Compound: CCCC1CCCCCC(O)CC(=O)NC2CSSCC(NC2=O)C(=O)O1 (centres unmarked) [compound of formula (1)]
antitumor activity in all cell lines as tested ([1]; 0.00032 to 10 μM, 40 cell lines, 15 histotypes): concentration-dependent antitumor activity
Solubility ([2]; in chloroform and methanol): sparingly soluble in chloroform and methanol; and
Solubility ([2]; in pyridine, acetic acid, dimethyl sulfoxide): Soluble in pyridine, acetic acid, dimethyl sulfoxide;
